Consider two molecules from US6852485B1, “Method for identifying a compound for the treatment of microorganism infections by inhibiting energy storage and utilization in pathogens” (California State University Fullerton Foundation, priority 2002, dated 2005).

Molecules are shown by their SMILES.

The experiment concerns the target T1, Rhodobacter sphaeroides (Rb.s.) ADPG Ppase (Cereibacter sphaeroides, UniProt Q9RNH7).
T1 construct: made in house
Description: ADPGlc synthesis assay (14-C Glc-1-P converted to ADPGlucose) with purified recombinant Rb.s. ADPG Ppase, with and without activator F6P. The format is biochemical. The following applies: for inhibition of Rb.s. ADPG Ppase: 500 μM analog, 0.25 mM ATP, 0.5 mM Glc-1-P, pH 7. An excerpt: One particular in vitro method for assessing the activity of an inhibitor to purified ADPGlc PPase is the following: • Assaying for ADPGlc synthesis activity involves measuring the amount of 14-C labeled Glc-1-P converted to ADPGlucose (Preiss, J., Shen, L., Greenberg, E., and Gentner, N. (1966) Biochemistry 5, 1833-1845). Briefly, unreacted Glc-1-P is separated from product by the following steps: 1)digestion with alkaline phosphatase (thus removing the negatively charged phosphate); 2) spotting an aliquot of the reaction mixture on to positively charged DE-81 filters (Whatman); and 3) washing the filters with water (thus removing the now neutral C-14 glucose).
To assess the effect of a putative inhibitor, enzyme assays are performed at a subsaturating concentration of substrate (depending on the enzyme, ATP=0.2-1 mM, Glc-1-P=0.5 mM) under standard conditions in the absence and presence of the major activator for each enzyme (1-5 mM depending on enzyme). In this way, the effect of the inhibitors can be evaluated under the range of the expected in vivo conditions. Initial screening of a putative inhibitor typically includes testing at two concentrations (˜25 μM and 1 mM)±major activator with appropriate controls and blanks for a total of 9 assays/inhibitor/enzyme (2 control assays—appropriate enzyme concentrations in the absence of inhibitor; 4 experimental assays; 1 blank in the absence of inhibitors; 2 blanks in the presence of inhibitor (no activator required).
The APDGIc Ppase from Rhodobacter sphaeroides has been used as a model enzyme for initial testing of inhibitors as it has been cloned, sequenced, and expressed in the inventor's laboratory (Meyer et al (1999) Arch. Biochem. Biophys. 372, 179-188; Igarashi, R. Y. and Meyer, C. R. (2000) Arch. Biochem. Biophys. 376, 47-58) and the purified recombinant enzyme is readily available. Further, this particular enzyme has the most complex regulation (having partial overlap with nearly every type of ADPG Ppase) and has sufficient homology (ranging from ˜40-70% similarity) to the enzyme primary sequence from the mentioned pathogenic bacteria.
PREMIX: A: 100 mM HEPES (pH 7), 0.5 mg/mL BSA, 0.5 mM Glc-1-P, 0.25 mM ATP subsaturating (near S0.5 value), 5 mM MgCl2, (0.2 U Pyrophosphatase))
PREMIX B: A+1 mM F6P (170 μL premix will allow 20 μL for analog vol., 10 μL of E)
II. ANALOG CONC.=5, 50, 500 μM (STOCK CONC.=5 mM) in 50 mM HEPES, pH 7, note that 20 μL of 5 mM in 200 μL assay will yield 500 μM final concentration to obtain 5 mM aliquots: • ANALOG I: add 625 μL of HEPES buffer, mix thoroughly • ANALOG II: add 500 μL of HEPES buffer, mix thoroughly
1:10 DILUTION ALIQUOTS OF 5 mM STOCKS are prepared in order to generate stock solutions that will give 50 and 5 μM with the addition of 20 μL. 100 μL aliquots are stored at −20 C
RBS ADPG PPASE WT ENZYME CONC.=17 mg/mL (use 1:8000 dilution in Dilution Buffer)
THE FOLLOWING ASSAY SET OF 11 ARE UTILIZED FOR EACH ANALOG • 1-BLANK (Premix A) • 2-BLANK+50 μM ANALOG (A) • 3-BLANK+500 μM ANALOG (A) • 4-E CON (A) • 5-E CON+F6P (B) • 6-E+5 μM (A) • 7-E+5 μM((B) • 8-E+50 μM(A) • 9-E+50 μM(B) • 10-E+500 μM (A) • 11-E+500 μM (B)
Purified Rb.s ADPG Ppase was assayed under standard conditions (0.25 mM ATP [˜S0.5 value], 0.5 mM Glc-1-P, 5 mM Mg, 100 mM HEPES, pH7) in the presence and absence of the activator F6P (1 mM) at 3 concentrations of the analogs: 5, 50, and 500 μM. Analog stock solutions were made in 50 mM HEPES, pH 7). These concentrations should be regarded as estimates as there could have been some breakdown of the compounds during 2 years of storage at −20° C. The analogs had no effect on the background cpm of the assays.

Where [1] appears, read: E + 5 uM analog, Premix A (no F6P).
The mark [2] stands for this setting: E + 5 uM analog, Premix B (+1 mM F6P).
The mark [3] stands for this setting: E + 50 uM analog, Premix A (no F6P).
[4] abbreviates: E + 50 uM analog, Premix B (+1 mM F6P).
Setting [5] is: E + 500 uM analog, Premix A (no F6P).
[6] abbreviates: E + 500 uM analog, Premix B (+1 mM F6P).

T1 sequence (Q9RNH7 whole entry): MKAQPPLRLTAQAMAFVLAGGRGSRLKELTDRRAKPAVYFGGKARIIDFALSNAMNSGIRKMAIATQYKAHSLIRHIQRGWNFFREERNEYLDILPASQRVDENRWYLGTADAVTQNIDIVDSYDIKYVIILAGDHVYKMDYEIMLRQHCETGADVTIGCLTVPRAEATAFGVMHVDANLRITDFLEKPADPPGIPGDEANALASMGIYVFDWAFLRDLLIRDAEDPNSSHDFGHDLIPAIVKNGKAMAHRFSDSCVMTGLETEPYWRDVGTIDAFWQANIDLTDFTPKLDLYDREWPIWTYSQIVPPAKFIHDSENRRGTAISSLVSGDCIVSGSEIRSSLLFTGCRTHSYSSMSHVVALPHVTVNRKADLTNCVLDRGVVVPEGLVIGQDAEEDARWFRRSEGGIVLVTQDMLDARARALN

On to `BP(=O)(OC[C@H]1O[C@@H](n2cnc3c(N)ncnc32)[C@H](O)[C@@H]1O)OP(=O)(O)O[C@H]1O[C@H](CO)[C@@H](O)[C@H](O)[C@H]1O` (single isomer, unassigned) [Analog I, adenosine-α-P-boranodiphosphoglucose], for which the “inhibition of Rb.s. ADPG Ppase” value by setting is: (absence of the activator F6P) “about 75%”; (presence of F6P (1 mM)) about 50%. Also, the “Units/mg (enzyme activity)” value under setting [1] was found to be 4.02 Units/mg; the “Units/mg (enzyme activity)” value under setting [2] amounted to 91.75 Units/mg; the “Units/mg (enzyme activity)” value under setting [3] stood at 3.55 Units/mg; the “Units/mg (enzyme activity)” value under setting [4] is recorded as 87.40 Units/mg; the “Units/mg (enzyme activity)” value under setting [5] was determined as 1.33 Units/mg; the “Units/mg (enzyme activity)” value under setting [6] was found to be 53.37 Units/mg.
For `BP(=O)(OC[C@H]1O[C@@H](n2cnc3c(N)ncnc32)[C@H](O)[C@@H]1O)OP(=O)(O)O[C@H]1O[C@H](CO)[C@@H](O)[C@H](O)[C@H]1O` (single isomer, unassigned) [Analog II, adenosine-α-P-boranodiphosphoglucose], the “inhibition of Rb.s. ADPG Ppase” value is, setting by setting: (absence of the activator F6P) “about 70%”; (presence of F6P (1 mM)) “about 70%”. Besides, the “Units/mg (enzyme activity)” value reads like this: under setting [1], 5.28 Units/mg; under setting [2], 93.86 Units/mg; under setting [3], 4.38 Units/mg; under setting [4], 76.73 Units/mg; under setting [5], 1.77 Units/mg; under setting [6], 33.51 Units/mg.
